Test results published in patent publication US20190282616A1, “MACROPHAGES REDIRECT PHAGOCYTOSIS BY NON-PROFESSIONAL PHAGOCYTES AND INFLUENCE INFLAMMATION” (University of Virginia Patent Foundation, priority 2016, published 2019).

What was measured:
[1] = tested on: LR73 cells; assay: In vitro engulfment assay: apoptotic thymocyte uptake by LR73 cells; type: cell-based, hamster; conditions: for reversal of IGF-1 mediated engulfment suppression in LR73 cells: agent added in the presence of IGF-1; for basal phagocytosis of apoptotic cells with inhibitor alone: without IGF-1; for apoptotic cell uptake by LR73 cells: human insulin or human IGF-II, at higher concentrations than IGF-1; for apoptotic cell uptake (engulfment) by LR73 cells: soluble mediator alone, IGF-I at concentrations reported in serum (100-600 ng/mL), other factors over a range of concentrations
Protocol: (§1) LR73, SVEC-40, BEAS-2B, and 16HBE14o-cells were seeded in a 24 well plate. Thymocytes were isolated from 4-6 week old mice and induced to undergo apoptosis with dexamethasone. Thymocytes or prepared microvesicles were then stained with either CypHer5E (GE Healthcare, PA15401) or TAMRA (Invitrogen, C-1171). LR73 and SVEC-40 cells were incubated with apoptotic thymocytes at a 1:10 phagocyte to target ratio, BEAS-2B at a 1:5 phagocyte to target ratio, and 16HBE14o—at a 1:20 phagocyte to target ratio for 2 hours. Mouse IGF-I (Sigma-Aldrich), human IGF-I (Sigma-Aldrich), human IGF-II (Sigma-Aldrich) were added to the phagocytes at the same time as addition of apoptotic targets. For IGFBP3 studies, IGFBP3 (Sigma-Aldrich) was added to media or supernatant from J774 cells for one hour to allow IGFBP3 to bind to any available IGF-I, then the mix is added to phagocytes along with apoptotic targets. For all pharmacological studies, phagocytes were pre-incubated with the compounds listed below for one hour prior to addition of apoptotic targets: cytochalasin D (Sigma-Aldrich, C8273, 1 μM), Latrunculin A (Tocris, 3973, 150 nM), CK-666 (Tocris, 3950, 25 μM-100 μM), OSI-906 (Selleckchem, S1091, 5 nM-40 nM), NVP-AEW541 (Selleckchem, S1034, 25 nM-100 nM), Rapamycin (Sigma-Aldrich, R0395, […]), MK-2206 2HCl (Selleckchem, S1078, 10 nM-1 U0126-EtOH (Selleckchem, S1102, […]), Wortmannin (Sigma-Aldrich, W1628, 50 nM-200 nM), Y27632 (Calbiochem, 688000, 3.75 μM-15 μM), or GSK269962 (Tocris, 4009, 80 nM-2 μM). […] Targets were then washed off three times with PBS, and the cells were dissociated from the plate with trypsin and the engulfment assessed by flow cytometry.

[2] = tested on: IGF-1 in BAL fluid; assay: In vivo cytokine administration: IGF-1 in BAL fluid; conditions: 1 μg recombinant mouse cytokine intranasally for two consecutive days
Protocol: Mice were administered intranasally with 1 μg of recombinant mouse IL-4, IL-5, or IL-13 (eBiosciences), 1×10^6 apoptotic Jurkat cells, or PBS as control, for two consecutive days. On the third day, BAL fluid was recovered and centrifuged; the supernatant was stored at −80° C. for subsequent cytokine analysis. IL-4, IL-5, IL-6, and CCL-11/Eotaxin-1 in the BAL fluid of mice that were sensitized with HDM (regimen #1) were quantified by a multiplex Luminex performed by the University of Virginia Flow Cytometry Core Facility. Secretion of IGF-1 from J774 cells, peritoneal macrophages, and BAL fluids, as well as TSLP from BAL fluids, were measured by ELISA (R&D Systems).

[3] = tested on: peritoneal macrophages; assay: IGF-1 secretion by peritoneal macrophages (ELISA); type: cell-based, mouse; conditions: treated with IL-4
Protocol: To obtain bone-marrow derived macrophages, femurs were removed from 8 week old mice and flushed with 5 mL of sterile PBS containing 5% FBS. The cell suspension was centrifuged, treated with red blood cell lysis buffer, washed, and then plated onto sterile petri dishes in DMEM containing 10% L929 media, 10% FBS and 1% penicillin/streptomycin/glutamine (PSQ). Media was replenished every 2 to 3 days and differentiated cells were used at day 6 post-harvest. Resident peritoneal macrophages were obtained by flushing the peritoneal cavity of mice with 10 mL of cold PBS containing 5% FBS. Collected cells were spun down, resuspended in X-VIVO 10 (Lonza) and plated at a concentration of 3×10^5 cells per well in a 24 well plate for IGF-1 secretion assays, and 5×10^5 per well in a 24 well plate for engulfment assays. Floating cells were washed the next day and remaining peritoneal macrophages were used 2 days after isolation. […]
IL-4, IL-5, IL-6, and CCL-11/Eotaxin-1 in the BAL fluid of mice that were sensitized with HDM (regimen #1) were quantified by a multiplex Luminex performed by the University of Virginia Flow Cytometry Core Facility. Secretion of IGF-1 from J774 cells, peritoneal macrophages, and BAL fluids, as well as TSLP from BAL fluids, were measured by ELISA (R&D Systems).

[4] = tested on: MH-S alveolar macrophages; assay: Microvesicle secretion by MH-S alveolar macrophages; type: cell-based, mouse; conditions: IL-4 treated MH-S alveolar macrophages, counted using qNano
Protocol: MH-S, mouse alveolar macrophages, or primary mouse alveolar macrophages were seeded. After adherence, the media was replaced with 0.22 μm filtered media to remove any contaminating microvesicles. After an overnight incubation, the supernatant was harvested and spun at 5000×g to remove cell debris and apoptotic bodies. The pellet was discarded and the resulting supernatant was filtered through 0.8 μm filter and spun again at 17,000×g. The pelleted microvesicles were then washed with HBSS and then spun again at 17,000×g. For engulfment assays, microvesicles were stained with TAMRA for 20 minutes and then added to BEAS-2B cells for 90 minutes. For flow cytometry, purified particles were stained with CD11c, Siglec F, and Annexin V (BD Biosciences, Cat. No. 550475) and processed on Imagestream™ imaging flow cytometer (Amnis). Microvesicle size distribution was characterized using qNano (IZON Science) with a NP400 membrane and at least 500 particles were counted. Microvesicles were prepared for cryo-electron microscopy using standard methods and imaged on an FEI TF20.

[5] = tested on: LR73 cells; conditions: for effect on IGF-1 induced increase in liposome uptake / basal uptake of liposomes: LR73 cells; for effect on IGF-1 induced increase in liposome uptake: inhibitor plus IGF-1; for basal uptake of liposomes: inhibitor without IGF-1; for uptake of PtdSer containing liposomes by LR73 cells: liposomes of 150-200 nm, IGF-1 50 ng/mL, EGF or VEGF 100 ng/mL each
Protocol: as §1
Liposomes were prepared by dissolving the lipids (phosphatidylserine, dioleoyl phosphatidylcholine, cholesterol and the lipid DiD dye) in chloroform, evaporating chloroform under flow of argon gas in a glass vial, then subjecting the lipid layer to overnight lyophilization to remove traces of organic solvent. Then normal saline was added for hydration, and intense vortexing was preformed to prepare multilamellar vesicles (MIN). Liposomes were repeatedly filtered through a 0.2 um Nuclepore polycarbonate filter to prepare smaller particles. Particle size was verified by dynamic light scattering using Nicomp 370.

[6] = tested on: IGF-1R, Akt and Erk1/2 phosphorylation in LR73 cells; assay: Immunoblotting of signaling in LR73 cells; type: cell-based, hamster; conditions: for phosphorylation of IGF-1R and Erk: LR73 cells stimulated with IGF-1 and treated with inhibitor; for early downstream signaling events (Erk1/2 phosphorylation): serum-starved LR73 cells, 100 ng/mL growth factor
Protocol: LR73, J774, or BEAS-2B cells were seeded in a 60 mm dish at a concentration of 5×10^5. […] Cells were lysed in RIPA buffer and used in Western blots. The blots were probed for phospho-Erk1/2 (Cell Signaling Technology, #4370), phospho-Akt (Cell Signaling Technology, #4060), phospho-IGF-1R (Cell Signaling, #3024), total Erk2 (Santa Cruz Biotechnology, #sc-154-G), total Akt (Cell Signaling Technology, #4691), total IGF-1R (Cell Signaling, #9750), and anti-B-actin-HRP (Sigma-Aldrich, #A3854) followed by chemiluminescence detection.

[7] = tested on: IC-21 cells; assay: Apoptotic thymocyte engulfment by IC-21 cells; type: cell-based; conditions: indicated concentrations of mouse IGF-1 or human insulin

With `C[C@@H](N)[C@H]1CC[C@H](C(=O)Nc2ccncc2)CC1` [Y27632, reference compound] the “reversal of IGF-1 mediated engulfment suppression in LR73 cells” value (“reversal … in LR73 cells” for short) [1] was “does not appear to rescue IGF-1 induced engulfment suppression” and the “basal phagocytosis of apoptotic cells with inhibitor alone” value [1] was “basally increases phagocytosis of apoptotic cells”.
For “IL-4: cytokine; recombinant mouse IL-4 (eBiosciences)”, the “IGF-1 in bronchoalveolar lavage (BAL) fluid” value [2] was “increased level of IGF-1”, the “IGF-1 secretion by peritoneal macrophages” value [3] was “confirmed IGF-1 secretion” and the “microvesicles secretion by macrophages” value [4] was “increased microvesicles secretion”.
`C=C1[C@@H](C)[C@H]2[C@H](Cc3ccccc3)NC(=O)[C@]23[C@H](OC(C)=O)/C=C/[C@@](C)(O)C(=O)[C@@H](C)C/C=C/[C@H]3[C@@H]1O` [Cytochalasin D] was tested, and the “basal phagocytosis of apoptotic cells with inhibitor alone” value [1] was “potently inhibited phagocytosis of apoptotic cells”, the “effect on IGF-1 induced increase in liposome uptake” value (shortened to “effect on IGF-1 induced increase”) [5] was “blocked the IGF-1 induced increase in liposome uptake” and the “basal uptake of liposomes” value [5] was “did not affect the basal uptake of liposomes”. For the same molecule, the “morphology of treated LR73 cells” value ([5]; for the duration of the assay) was “appeared morphologically normal”.
For “IGFBP3: IGF binding protein that stabilizes and sequesters IGF-1 (Sigma-Aldrich)”, the “reversal of suppression by macrophage produced IGF-1” value ([1]; J774 supernatant incubated with IGFBP3, LR73 cells) was “reversed by IGFBP3 addition”, the “reversal … in LR73 cells” value [1] was “restored the phagocytic capability of LR73 cells” and the “basal phagocytosis by LR73 cells” value ([1]; supernatant of unstimulated J774 cells plus IGFBP3) was “increases the basal phagocytosis”.
With insulin-like growth factor II [IGF-II] the “apoptotic cell uptake by LR73 cells” value [1] was “could also reduce apoptotic cell uptake”.
`C[C@]1(O)C[C@@H](c2nc(-c3ccc4ccc(-c5ccccc5)nc4c3)c3c(N)nccn32)C1` [OSI-906, reference compound] was tested, and the “phosphorylation of IGF-1R and Erk” value [6] was “concomitant decrease in phosphorylation of IGF-1R and Erk”, the “reversal … in LR73 cells” value [1] was “rescued the engulfment capacity of LR73 cells” and the “effect on IGF-1 induced increase” value [5] was “reduced the increased liposome uptake”.
“EGF: growth factor of the tested panel of soluble mediators (NSDSECPLSHDGYCLHDGVCMYIEALDKYACNCVVGYIGERCQYRDLKWWELR; Epidermal growth factor; UniProt P01133 971-1023, looked up)” was tested, and the “early downstream signaling events (Erk1/2 phosphorylation)” value (“early downstream signaling events” below) [6] was “elicited early downstream signaling events”, the “apoptotic cell uptake (engulfment) by LR73 cells” value [1] was “did not alter engulfment” and the “uptake of PtdSer containing liposomes by LR73 cells” value [5] was “not seen”.
With `Nc1ncnc2c1c(-c1cccc(OCc3ccccc3)c1)cn2C1CC(CN2CCC2)C1` (centres unmarked) [NVP-AEW541, reference compound] the “phosphorylation of IGF-1R and Erk” value [6] was “concomitant decrease in phosphorylation of IGF-1R and Erk” and the “reversal … in LR73 cells” value [1] was “rescued the engulfment capacity of LR73 cells”.
With “insulin: shares structural similarity with IGF-1, lower affinity for IGF-1R” the “corpse uptake by IC-21 cells” value [7] was “engulf apoptotic cells at normal capacity” and the “apoptotic cell uptake by LR73 cells” value [1] was “could also reduce apoptotic cell uptake”.
VEGF was tested, and the “early downstream signaling events” value [6] was “elicited early downstream signaling events”, the “apoptotic cell uptake (engulfment) by LR73 cells” value [1] was “did not alter engulfment” and the “uptake of PtdSer containing liposomes by LR73 cells” value [5] was “not seen”.
With `C/C1=C/C(=O)O[C@@H]2C[C@@H](CC[C@H](C)/C=C\C=C\CC1)O[C@@](O)([C@@H]1CSC(=O)N1)C2` [Latrunculin A] the “effect on IGF-1 induced increase” value [5] was “reversed IGF-1 mediated enhancement of liposome uptake” and the “basal uptake of liposomes” value [5] was “without affecting the basal uptake of liposomes”.
For `CCn1c(-c2nonc2N)nc2cnc(Oc3cccc(NC(=O)c4ccc(OCCN5CCOCC5)cc4)c3)cc21` [GSK269962, reference compound], the “reversal … in LR73 cells” value [1] was “does not appear to rescue IGF-1 induced engulfment suppression” and the “basal phagocytosis of apoptotic cells with inhibitor alone” value [1] was “basally increases phagocytosis of apoptotic cells”.
fibroblast growth factor 2 [FGF2] was tested, and the “early downstream signaling events” value [6] was “elicited early downstream signaling events” and the “apoptotic cell uptake (engulfment) by LR73 cells” value [1] was “did not alter engulfment”.
With “PDGF-AA: growth factor of the tested panel of soluble mediators” the “early downstream signaling events” value [6] was “elicited early downstream signaling events” and the “apoptotic cell uptake (engulfment) by LR73 cells” value [1] was “did not alter engulfment”.
`Cc1[nH]c2ccccc2c1CCNC(=O)c1ccccc1F` [CK-666] was tested, and the “effect on IGF-1 induced increase” value [5] was “minimal effect”.
